Test results taken from publication PMC11873239, “A covalent chemical probe for Chikungunya nsP2 cysteine protease with antialphaviral activity and proteome-wide selectivity” (Scientific Reports, 2025).
“And” between values parts separate entries of the source, which are not always exact repeats. Equal entries are not always repeated.

What was measured:
Format in all cases: binding
[1] = molecular target: HEK293 cell lysate proteins (Homo sapiens, UniProt P04040)
[2] = molecular target: HEK293 cell lysate proteins (Homo sapiens, UniProt P04406)
[3] = molecular target: HEK293 cell lysate proteins (Homo sapiens, UniProt P11142)
Sequence of HEK293 cell lysate proteins (Homo sapiens, UniProt P11142) (P11142 whole entry): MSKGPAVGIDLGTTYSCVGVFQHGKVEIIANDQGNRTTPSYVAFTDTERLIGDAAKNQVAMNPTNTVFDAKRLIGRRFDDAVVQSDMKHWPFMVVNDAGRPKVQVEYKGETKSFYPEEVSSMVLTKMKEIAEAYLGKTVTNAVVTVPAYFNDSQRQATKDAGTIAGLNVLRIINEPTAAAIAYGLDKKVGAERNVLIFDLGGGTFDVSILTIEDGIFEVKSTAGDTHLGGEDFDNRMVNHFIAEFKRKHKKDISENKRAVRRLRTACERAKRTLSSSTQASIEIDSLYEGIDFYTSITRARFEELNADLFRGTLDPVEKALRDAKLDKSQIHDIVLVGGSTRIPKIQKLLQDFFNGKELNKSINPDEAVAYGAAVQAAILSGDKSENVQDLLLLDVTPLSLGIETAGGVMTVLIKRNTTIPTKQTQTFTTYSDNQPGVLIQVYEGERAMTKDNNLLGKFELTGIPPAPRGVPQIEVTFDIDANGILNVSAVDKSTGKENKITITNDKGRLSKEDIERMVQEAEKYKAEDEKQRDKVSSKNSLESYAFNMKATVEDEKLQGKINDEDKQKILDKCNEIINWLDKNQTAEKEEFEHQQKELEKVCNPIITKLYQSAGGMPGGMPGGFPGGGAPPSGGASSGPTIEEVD

[4] = molecular target: HEK293 cell lysate proteins (Homo sapiens, UniProt P15924)
[5] = molecular target: HEK293 cell lysate proteins (Homo sapiens, UniProt P22735)
[6] = molecular target: HEK293 cell lysate proteins (Homo sapiens, UniProt P31151)
[7] = molecular target: HEK293 cell lysate proteins (Homo sapiens, UniProt P32119)
[8] = molecular target: HEK293 cell lysate proteins (Homo sapiens, UniProt P60709)
[9] = molecular target: HEK293 cell lysate proteins (Homo sapiens, UniProt P81605)
[10] = molecular target: HEK293 cell lysate proteins (Homo sapiens, UniProt Q08188)
[11] = molecular target: HEK293 cell lysate proteins (Homo sapiens, UniProt Q14151)
[12] = molecular target: HEK293 cell lysate proteins (Homo sapiens, UniProt Q5T750)
[13] = molecular target: HEK293 cell lysate proteins (Homo sapiens, UniProt Q6ZVX7)
[14] = molecular target: HEK293 cell lysate proteins (Homo sapiens, UniProt Q86VP6)
[15] = molecular target: HEK293 cell lysate proteins (Homo sapiens, UniProt Q8WVV4)
[16] = molecular target: HEK293 cell lysate proteins and CHIKV nsP2 (Homo sapiens, UniProt O60524)
[17] = molecular target: HEK293 cell lysate proteins and CHIKV nsP2 (Homo sapiens, UniProt P04040)
[18] = molecular target: HEK293 cell lysate proteins and CHIKV nsP2 (Homo sapiens, UniProt P04259)
Sequence of HEK293 cell lysate proteins and CHIKV nsP2 (Homo sapiens, UniProt P04259) (P04259 whole entry): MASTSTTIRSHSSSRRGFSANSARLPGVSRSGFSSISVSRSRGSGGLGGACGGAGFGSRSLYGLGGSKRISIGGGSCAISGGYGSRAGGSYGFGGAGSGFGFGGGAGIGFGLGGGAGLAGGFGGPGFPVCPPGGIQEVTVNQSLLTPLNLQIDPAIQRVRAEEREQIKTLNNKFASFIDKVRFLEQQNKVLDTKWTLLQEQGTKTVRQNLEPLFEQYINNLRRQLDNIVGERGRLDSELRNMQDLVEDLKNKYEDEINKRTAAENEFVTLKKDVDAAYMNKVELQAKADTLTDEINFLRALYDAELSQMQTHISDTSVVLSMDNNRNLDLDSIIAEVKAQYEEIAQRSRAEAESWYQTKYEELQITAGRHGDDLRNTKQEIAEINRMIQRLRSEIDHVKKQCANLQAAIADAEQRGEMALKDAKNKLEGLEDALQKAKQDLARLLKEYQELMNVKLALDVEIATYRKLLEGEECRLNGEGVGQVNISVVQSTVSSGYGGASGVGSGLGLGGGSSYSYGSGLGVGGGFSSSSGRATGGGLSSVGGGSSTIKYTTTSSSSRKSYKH

[19] = molecular target: HEK293 cell lysate proteins and CHIKV nsP2 (Homo sapiens, UniProt P07355)
Sequence of HEK293 cell lysate proteins and CHIKV nsP2 (Homo sapiens, UniProt P07355) (P07355 whole entry): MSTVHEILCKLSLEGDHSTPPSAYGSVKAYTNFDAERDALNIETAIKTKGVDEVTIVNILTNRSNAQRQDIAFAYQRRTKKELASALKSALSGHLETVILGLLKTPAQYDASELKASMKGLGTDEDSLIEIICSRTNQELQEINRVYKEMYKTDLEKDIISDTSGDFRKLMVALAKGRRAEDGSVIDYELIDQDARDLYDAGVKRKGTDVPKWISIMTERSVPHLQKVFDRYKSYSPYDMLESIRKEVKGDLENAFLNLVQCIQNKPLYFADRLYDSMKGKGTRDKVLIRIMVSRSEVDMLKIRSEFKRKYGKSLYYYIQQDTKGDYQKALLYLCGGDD

[20] = molecular target: HEK293 cell lysate proteins and CHIKV nsP2 (Homo sapiens, UniProt P11142)
Sequence of HEK293 cell lysate proteins and CHIKV nsP2 (Homo sapiens, UniProt P11142) (P11142 whole entry): as the sequence (P11142 whole entry) above

[21] = molecular target: HEK293 cell lysate proteins and CHIKV nsP2 (Homo sapiens, UniProt P31944)
[22] = molecular target: HEK293 cell lysate proteins and CHIKV nsP2 (Homo sapiens, UniProt P35251)
[23] = molecular target: HEK293 cell lysate proteins and CHIKV nsP2 (Homo sapiens, UniProt P42357)
[24] = molecular target: HEK293 cell lysate proteins and CHIKV nsP2 (Homo sapiens, UniProt P59665)
[25] = molecular target: HEK293 cell lysate proteins and CHIKV nsP2 (Homo sapiens, UniProt Q13428)
Sequence of HEK293 cell lysate proteins and CHIKV nsP2 (Homo sapiens, UniProt Q13428) (Q13428 whole entry): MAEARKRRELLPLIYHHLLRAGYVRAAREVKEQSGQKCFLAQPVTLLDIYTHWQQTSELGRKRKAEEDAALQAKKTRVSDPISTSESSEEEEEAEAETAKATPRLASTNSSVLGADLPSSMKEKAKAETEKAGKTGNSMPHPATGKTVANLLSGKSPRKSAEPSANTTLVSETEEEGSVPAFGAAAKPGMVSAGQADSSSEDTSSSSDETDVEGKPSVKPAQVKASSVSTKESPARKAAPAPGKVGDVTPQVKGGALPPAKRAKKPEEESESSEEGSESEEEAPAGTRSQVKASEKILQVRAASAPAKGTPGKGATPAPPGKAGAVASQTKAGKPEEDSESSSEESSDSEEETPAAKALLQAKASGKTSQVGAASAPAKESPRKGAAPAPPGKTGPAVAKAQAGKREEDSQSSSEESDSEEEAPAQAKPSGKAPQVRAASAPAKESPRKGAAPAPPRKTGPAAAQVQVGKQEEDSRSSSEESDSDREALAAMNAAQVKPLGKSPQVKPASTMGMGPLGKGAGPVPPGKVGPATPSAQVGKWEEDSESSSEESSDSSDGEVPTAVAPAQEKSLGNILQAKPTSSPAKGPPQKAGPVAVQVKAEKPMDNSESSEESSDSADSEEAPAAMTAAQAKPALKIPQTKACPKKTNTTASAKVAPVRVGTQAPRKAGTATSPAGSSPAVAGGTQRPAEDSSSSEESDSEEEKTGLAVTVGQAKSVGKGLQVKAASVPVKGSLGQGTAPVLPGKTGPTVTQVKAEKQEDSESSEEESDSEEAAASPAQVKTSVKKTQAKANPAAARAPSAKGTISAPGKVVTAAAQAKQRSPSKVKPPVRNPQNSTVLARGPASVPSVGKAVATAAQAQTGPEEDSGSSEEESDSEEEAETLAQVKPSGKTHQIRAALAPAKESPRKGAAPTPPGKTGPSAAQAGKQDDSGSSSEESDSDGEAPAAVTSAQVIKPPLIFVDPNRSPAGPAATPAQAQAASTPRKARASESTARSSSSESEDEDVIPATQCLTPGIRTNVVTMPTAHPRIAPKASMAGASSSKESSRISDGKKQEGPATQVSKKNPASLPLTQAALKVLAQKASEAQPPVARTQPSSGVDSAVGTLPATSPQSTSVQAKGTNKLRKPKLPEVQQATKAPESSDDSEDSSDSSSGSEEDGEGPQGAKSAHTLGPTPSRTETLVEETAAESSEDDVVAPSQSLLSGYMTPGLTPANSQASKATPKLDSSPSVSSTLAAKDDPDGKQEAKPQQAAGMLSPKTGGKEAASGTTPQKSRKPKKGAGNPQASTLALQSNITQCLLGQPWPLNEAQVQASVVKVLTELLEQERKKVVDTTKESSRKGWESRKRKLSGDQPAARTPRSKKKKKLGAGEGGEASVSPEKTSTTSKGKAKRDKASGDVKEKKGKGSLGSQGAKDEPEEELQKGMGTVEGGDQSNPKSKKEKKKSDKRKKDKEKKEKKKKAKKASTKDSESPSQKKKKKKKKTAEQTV

[26] = molecular target: HEK293 cell lysate proteins and CHIKV nsP2 (Homo sapiens, UniProt Q3YEC7)
[27] = molecular target: HEK293 cell lysate proteins and CHIKV nsP2 (Homo sapiens, UniProt Q5JTH9)
[28] = molecular target: HEK293 cell lysate proteins and CHIKV nsP2 (Homo sapiens, UniProt Q5T750)
[29] = molecular target: HEK293 cell lysate proteins and CHIKV nsP2 (Homo sapiens, UniProt Q6ZVX7)
[30] = molecular target: HEK293 cell lysate proteins and CHIKV nsP2 (Homo sapiens, UniProt Q8NFC6)
[31] = molecular target: HEK293 cell lysate proteins and CHIKV nsP2 (Homo sapiens, UniProt Q96P63)
Sequence of HEK293 cell lysate proteins and CHIKV nsP2 (Homo sapiens, UniProt Q96P63) (Q96P63 whole entry): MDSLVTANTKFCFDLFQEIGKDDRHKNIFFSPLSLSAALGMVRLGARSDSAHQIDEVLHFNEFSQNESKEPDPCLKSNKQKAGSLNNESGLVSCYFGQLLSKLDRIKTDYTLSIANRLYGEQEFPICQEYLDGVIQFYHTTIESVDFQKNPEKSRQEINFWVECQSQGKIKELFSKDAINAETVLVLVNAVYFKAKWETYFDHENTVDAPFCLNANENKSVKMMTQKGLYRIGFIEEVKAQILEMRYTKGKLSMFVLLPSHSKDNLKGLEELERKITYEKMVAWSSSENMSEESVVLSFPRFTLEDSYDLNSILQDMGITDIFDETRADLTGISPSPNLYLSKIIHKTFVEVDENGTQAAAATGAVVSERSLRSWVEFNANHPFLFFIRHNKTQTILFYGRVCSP

[32] = molecular target: HEK293 cell lysate proteins and CHIKV nsP2 (Homo sapiens, UniProt Q96QA5)
[33] = molecular target: HEK293 cell lysate proteins and CHIKV nsP2 (Homo sapiens, UniProt Q99459)
Sequence of HEK293 cell lysate proteins and CHIKV nsP2 (Homo sapiens, UniProt Q99459) (Q99459 whole entry): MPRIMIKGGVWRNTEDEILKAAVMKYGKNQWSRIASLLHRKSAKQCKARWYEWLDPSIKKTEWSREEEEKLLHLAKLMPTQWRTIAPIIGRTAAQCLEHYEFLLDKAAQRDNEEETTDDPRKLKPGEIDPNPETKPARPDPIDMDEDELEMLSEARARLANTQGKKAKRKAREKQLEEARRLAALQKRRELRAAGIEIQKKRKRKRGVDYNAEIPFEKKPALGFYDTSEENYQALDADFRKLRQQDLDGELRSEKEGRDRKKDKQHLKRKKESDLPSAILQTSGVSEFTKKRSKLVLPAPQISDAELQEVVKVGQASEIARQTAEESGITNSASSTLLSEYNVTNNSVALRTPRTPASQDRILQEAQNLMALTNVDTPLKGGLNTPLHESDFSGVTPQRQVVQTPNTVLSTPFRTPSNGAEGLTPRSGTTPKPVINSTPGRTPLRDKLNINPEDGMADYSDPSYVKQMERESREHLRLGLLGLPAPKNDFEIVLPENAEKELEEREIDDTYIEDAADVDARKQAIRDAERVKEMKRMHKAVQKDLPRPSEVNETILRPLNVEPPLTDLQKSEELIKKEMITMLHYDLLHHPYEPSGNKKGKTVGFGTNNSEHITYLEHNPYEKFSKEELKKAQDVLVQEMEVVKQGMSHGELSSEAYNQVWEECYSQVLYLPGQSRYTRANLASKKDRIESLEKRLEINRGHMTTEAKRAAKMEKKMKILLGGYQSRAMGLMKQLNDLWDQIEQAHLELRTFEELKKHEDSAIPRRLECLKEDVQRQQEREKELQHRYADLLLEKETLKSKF

[34] = molecular target: HEK293 cell lysate proteins and CHIKV nsP2 (Homo sapiens, UniProt Q9HCY8)
Sequence of HEK293 cell lysate proteins and CHIKV nsP2 (Homo sapiens, UniProt Q9HCY8) (Q9HCY8 whole entry): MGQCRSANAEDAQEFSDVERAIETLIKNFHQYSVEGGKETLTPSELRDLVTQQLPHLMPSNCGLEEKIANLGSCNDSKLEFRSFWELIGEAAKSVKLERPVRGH

[35] = molecular target: HEK293 cell lysate proteins and CHIKV nsP2 (Homo sapiens, UniProt Q9NWH9)
[36] = molecular target: HEK293 cell lysate proteins and CHIKV nsP2 (Homo sapiens, UniProt Q9UQ35)
[37] = molecular target: HEK293 cell lysate proteins and CHIKV nsP2 (Homo sapiens, UniProt Q9Y520)
[38] = molecular target: HEK293 cell lysate proteins and CHIKV nsP2 (Homo sapiens, UniProt Q9Y5B9)

C#CCOc1ccccc1-c1cc(C(=O)NC/C=C/S(C)(=O)=O)on1 [VS, (E)-N-(3-(methylsulfonyl)allyl)−3-(2-(prop-2-yn-1-yloxy)phenyl)isoxazole-5-carboxamide] showed a Log2 fold change [1] of 1.41, a Log2 fold change [2] of 1.78 and a Log2 fold change [3] of 1.15. For the same compound, the Log2 fold change [4] was 2.05, the Log2 fold change [5] was 1.60 and the Log2 fold change [6] was -1.22. It also gave a Log2 fold change [7] of 2.04, a Log2 fold change [8] of 1.54 and a Log2 fold change [9] of 1.36. For the same compound, the Log2 fold change [10] was 1.61, the Log2 fold change [11] was 1.50 and the Log2 fold change [12] was 2.49. It also gave a Log2 fold change [13] of 2.74, a Log2 fold change [14] of -1.19 and a Log2 fold change [15] of 5.21. The Log2 fold change [16] was -0.75, the Log2 fold change [17] was 1.41 and the Log2 fold change [18] was 3.24. It also gave a Log2 fold change [19] of 1.52, a Log2 fold change [20] of 1.15 and a Log2 fold change [21] of 1.29. The Log2 fold change [22] was 0.30, the Log2 fold change [23] was 1.12 and the Log2 fold change [24] was -2.83. The Log2 fold change [25] was 1.02 and 1.32, the Log2 fold change [26] was -2.27 and the Log2 fold change [27] was -0.0263. It also gave a Log2 fold change [28] of 2.49, a Log2 fold change [29] of 2.74 and a Log2 fold change [30] of 0.23. For the same compound, the Log2 fold change [31] was 1.71, the Log2 fold change [32] was 1.51 and the Log2 fold change [33] was -0.00878. It also gave a Log2 fold change [34] of -1.35, a Log2 fold change [35] of -0.40 and a Log2 fold change [36] of 0.25. The Log2 fold change [37] was 0.50 and the Log2 fold change [38] was -3.45.
